Where a name gives a salt, the structure may show the parent alone. Calls of active or inactive are those of the source. The rule behind the calls is not given here.
Legend:
A2780 [1] = experiment: Antiproliferative activity against human paclitaxel-resistant A2780/TAX cells assessed as cell viability incubated for 48 hrs by MTT assay; assay type: functional, cell-based; settings: A2780, 48 h
A549 [2] = experiment: Resistance index, ratio of IC50 for antiproliferative activity against human adriamycin-resistant A549/ADR cells to IC50 for antiproliferative activity against human A549 cells; assay type: functional
A549 [3] = experiment: Antiproliferative activity against human A549 cells assessed as cell viability incubated for 48 hrs by MTT assay; assay type: functional, cell-based; settings: A549, 48 h
A549 [4] = experiment: Antiproliferative activity against human adriamycin-resistant A549/ADR cells assessed as cell viability incubated for 48 hrs by MTT assay; assay type: functional, cell-based; settings: A549, 48 h
HCT-8 [5] = experiment: Antiproliferative activity against human HCT-8 cells assessed as cell viability incubated for 48 hrs by MTT assay; assay type: functional, cell-based; settings: HCT-8, 48 h
[6] = Resistance index, ratio of IC50 for antiproliferative activity against human paclitaxel-resistant A2780/TAX cells to IC50 for antiproliferative activity against human A2780 cells; assay type: functional
A2780 [7] = experiment: Antiproliferative activity against human A2780 cells assessed as cell viability incubated for 48 hrs by MTT assay; assay type: functional, cell-based; settings: A2780, 48 h
[8] = Resistance index, ratio of IC50 for antiproliferative activity against human vincristine-resistant HCT-8/VCR cells to IC50 for antiproliferative activity against HCT-8 cells; assay type: functional
HCT-8 [9] = experiment: Antiproliferative activity against human vincristine-resistant HCT-8/VCR cells assessed as cell viability incubated for 48 hrs by MTT assay; assay type: functional, cell-based; settings: HCT-8, 48 h
A549 [10] = experiment: Induction of apoptosis in human A549 cells assessed as cell viability pretreated with ferroptosis inhibitor ferrostatin-1 for 24 hrs followed by incubation with compound at 200 nM and measured after 48 hrs by CCK-8 assay; assay type: functional, cell-based
HeLa = experiment: Antiproliferative activity against human HeLa cells assessed as cell viability incubated for 48 hrs by MTT assay; assay type: functional, cell-based
A549 [11] = experiment: Induction of apoptosis in human A549 cells assessed as cell viability pretreated with ferroptosis inhibitor desferoxamine for 24 hrs followed by incubation with compound at 200 nM and measured after 48 hrs by CCK-8 assay; assay type: functional, cell-based
MCF7 = experiment: Antiproliferative activity against human MCF7 cells assessed as cell viability incubated for 48 hrs by MTT assay; assay type: functional, cell-based; settings: MCF7, 48 h
A549 [12] = experiment: Induction of apoptosis in human A549 cells assessed as cell viability pretreated with caspase inhibitor Z-VAD-FMK for 24 hrs followed by incubation with compound at 200 nM and measured after 48 hrs by CCK-8 assay; assay type: functional, cell-based
A549 [13] = experiment: Induction of apoptosis in human A549 cells assessed as cell viability pretreated with autophagy inhibitor 3-methyladenine for 24 hrs followed by incubation with compound at 200 nM and measured after 48 hrs by CCK-8 assay; assay type: functional, cell-based
A549 [14] = experiment: Induction of apoptosis in human A549 cells assessed as cell viability pretreated with necroptosis inhibitor necrostatin-I for 24 hrs followed by incubation with compound at 200 nM and measured after 48 hrs by CCK-8 assay; assay type: functional, cell-based
A549 [15] = experiment: Induction of apoptosis in human A549 cells assessed as cell viability pretreated with caspase inhibitor Z-VAD-FMK for 24 hrs followed by incubation with compound at 100 nM and measured after 48 hrs by CCK-8 assay; assay type: functional, cell-based
A549 [16] = experiment: Induction of apoptosis in human A549 cells assessed as cell viability pretreated with autophagy inhibitor 3-methyladenine for 24 hrs followed by incubation with compound at 100 nM and measured after 48 hrs by CCK-8 assay; assay type: functional, cell-based
A549 [17] = experiment: Induction of apoptosis in human A549 cells assessed as cell viability pretreated with ferroptosis inhibitor ferrostatin-1 for 24 hrs followed by incubation with compound at 100 nM and measured after 48 hrs by CCK-8 assay; assay type: functional, cell-based
A549 [18] = experiment: Induction of apoptosis in human A549 cells assessed as cell viability pretreated with necroptosis inhibitor necrostatin-I for 24 hrs followed by incubation with compound at 100 nM and measured after 48 hrs by CCK-8 assay; assay type: functional, cell-based
A549 [19] = experiment: Induction of apoptosis in human A549 cells assessed as cell viability pretreated with ferroptosis inhibitor desferoxamine for 24 hrs followed by incubation with compound at 100 nM and measured after 48 hrs by CCK-8 assay; assay type: functional, cell-based
A549 [20] = experiment: Induction of apoptosis in human A549 cells assessed as early apoptotic cells at 50 nM incubated for 24 hrs by annexin V-FITC/PI staining based flow cytometry analysis; assay type: functional, cell-based
A549 [21] = experiment: In vivo antitumor activity against human A549 cells xenografted in athymic nude BALB/c mouse assessed as tumor weight at 10 mg/kg measured after 30 days (reference value: 1 gram); assay type: functional; settings: time 30 day
A549 [22] = experiment: In vivo antitumor activity against human A549 cells xenografted in athymic nude BALB/c mouse assessed as tumor growth inhibition at 10 mg/kg measured after 30 days relative to control; assay type: functional; settings: A549, 720 h, time 30 day, read-out: TGI
A549 [23] = experiment: Induction of ferroptosis in human A549 cells assessed as depletion of GSH levels at 10 uM upto 12 hrs; assay type: functional, cell-based
A549 [24] = experiment: In vivo antitumor activity against human A549 cells xenografted in athymic nude BALB/c mouse assessed as tumor volume at 10 mg/kg measured after 30 days (reference value: 1503.3 mm^3); assay type: functional; settings: time 30 day
A549 [25] = experiment: Induction of cell death in human A549 cells assessed as vanished mitochondrial cristae at 10 uM for 12 hrs by TEM analysis; assay type: functional, cell-based
A549 [26] = experiment: Induction of cell death in human A549 cells assessed as increased mitochondrial membrane density at 10 uM for 12 hrs by TEM analysis; assay type: functional, cell-based
A549 [27] = experiment: Induction of apoptosis in human A549 cells assessed as cell rounding incubated for 24 hrs […]; assay type: functional, cell-based
A549 [28] = experiment: Induction of apoptosis in human A549 cells assessed as apoptotic body formation incubated for 24 hrs […]; assay type: functional, cell-based
A549 [29] = experiment: Induction of apoptosis in human A549 cells assessed as nucleic fragmentation incubated for 24 hrs by CCK-8 assay; assay type: functional, cell-based
A549 [30] = experiment: Induction of cell death in human A549 cells assessed as increased mitochondrial membrane density at 200 nM for 12 hrs by TEM analysis; assay type: functional, cell-based
Tubulin [31] = experiment: Inhibition of [3H]colchicine binding to tubulin (unknown origin) by competitive binding assay; assay type: protein-complex assay, Homo sapiens
A549 [32] = experiment: Induction of cell death in human A549 cells assessed as vanished mitochondrial cristae at 200 nM for 12 hrs by TEM analysis; assay type: functional, cell-based
A549 [33] = experiment: Induction of apoptosis in human A549 cells assessed as chromatin condensation incubated for 24 hrs by CCK-8 assay; assay type: functional, cell-based
Tubulin [34] = experiment: Inhibition of tubulin polymerization (unknown origin) assessed as fluorescence intensity emission at 410 nm for 60 mins; assay type: protein-complex assay, Homo sapiens

SMILES	IC50 (A549 [3])	IC50 (HCT-8 [5])	IC50 (A2780 [7])	IC50 (HeLa)	IC50 (MCF7)	other results
CC[C@]1(O)C[C@H]2CN(CCc3c([nH]c4ccccc34)[C@@](C(=O)OC)(c3cc4c(cc3OC)N(C=O)[C@H]3[C@@](O)(C(=O)OC)[C@H](OC(C)=O)[C@]5(CC)C=CCN6CC[C@]43[C@@H]65)C2)C1 [VINCRISTINE]	60 nM	350 nM	30 nM	–	–	IC50 (A2780 [1]): 170 nM; Ratio IC50 (A549 [2]): 9.33; IC50 (A549 [4]): 560 nM; Ratio IC50 [6]: 5.67; Ratio IC50 [8]: 22.46; IC50 (HCT-8 [9]): 7860 nM
C=C(c1cc(OC)c(OC)c(OC)c1)c1ccc(OC)c(O)c1NC(=O)COC	190 nM	280 nM	450 nM	330 nM	560 nM	Activity (A549 [10]): Active; Activity (A549 [11]): Active; Activity (A549 [12]): Active; Activity (A549 [13]): Active; Activity (A549 [14]): Active
CC(=O)O[C@H]1C(=O)[C@@]2(C)[C@H]([C@H](OC(=O)c3ccccc3)[C@]3(O)C[C@H](OC(=O)[C@H](O)[C@@H](NC(=O)c4ccccc4)c4ccccc4)C(C)=C1C3(C)C)[C@]1(OC(C)=O)CO[C@@H]1C[C@@H]2O [PACLITAXEL]	30 nM	20 nM	–	–	–	IC50 (A549 [4]): 70 nM; IC50 (HCT-8 [9]): 130 nM
C=C(c1cc(OC)c(OC)c(OC)c1)c1ccc(OC)c(O)c1NC(C)=O	80 nM	340 nM	170 nM	90 nM	270 nM	Activity (A549 [15]): Active; Activity (A549 [16]): Active; Activity (A549 [17]): Active; Activity (A549 [18]): Active; Activity (A549 [19]): Active
COc1cccc2c1C(=O)c1c(O)c3c(c(O)c1C2=O)C[C@@](O)(C(=O)CO)C[C@@H]3O[C@H]1C[C@H](N)[C@H](O)[C@H](C)O1 [DOXORUBICIN HYDROCHLORIDE]	–	3980 nM	2030 nM	–	–	IC50 (A2780 [1]): 2690 nM; IC50 (A549 [4]): 12500 nM; IC50 (HCT-8 [9]): 21600 nM
COc1ccc(C(=O)c2ccc(OC)c3c2OC(C)(C)C=C3)c(NC(=O)CO)c1	80 nM	230 nM	100 nM	100 nM	320 nM	Activity (A549 [20]): Active; Activity (A549 [15]): Active; Activity (A549 [16]): Active; Activity (A549 [17]): Active; Activity (A549 [18]): Active; Activity (A549 [19]): Active
CCOc1ccccc1-n1c(C(C)N2CCN(C(=O)COc3ccc(Cl)cc3)CC2)nc2ccccc2c1=O (stereo not drawn) [ERASTIN]	–	–	–	–	–	Activity (A549 [21]): 0.89 g; inhibition in vivo at 10 mg/kg (A549 [22]): 10.9%; Activity (A549 [23]): Active; Activity (A549 [24]): 1339.4 mm3; Activity (A549 [25]): Active; Activity (A549 [26]): Active
COc1ccc(C(=O)c2ccc(OC)c3c2OC(C)(C)C=C3)c(NC(=O)CN(C)C)c1	890 nM	1590 nM	790 nM	1050 nM	2680 nM	–
COc1ccc(C(=O)c2ccc3c(c2)C=CC(C)(C)O3)c(NC(=O)CN)c1	310 nM	490 nM	590 nM	580 nM	680 nM	–
C=C(c1ccc(OC)cc1NC(=O)CO)c1ccc(OC)c2c1C=CC(C)(C)O2	70 nM	470 nM	280 nM	100 nM	590 nM	–
CCNCC(=O)Nc1cc(OC)ccc1C(=O)c1ccc(OC)c2c1C=CC(C)(C)O2	2310 nM	7890 nM	4090 nM	4270 nM	7230 nM	–
COc1ccc(C(=O)c2cc(OC)c(OC)c(OC)c2)cc1O [PHENSTATIN]	–	360 nM	110 nM	220 nM	960 nM	Activity (A549 [27]): Active; Activity (A549 [28]): Active; Activity (A549 [29]): Active; Activity (A549 [30]): Active; IC50 (Tubulin [31]): 3030 nM; Activity (A549 [32]): Active; Activity (A549 [33]): Active; IC50 (Tubulin [34]): 2940 nM
C=C(c1cc(OC)c(OC)c(OC)c1)c1ccc(OC)c(O)c1NC(=O)CN(C)C	50 nM	110 nM	90 nM	120 nM	210 nM	–
COc1ccc(C(=O)c2ccc(OC)c3c2OC(C)(C)C=C3)c(NC(=O)CN)c1	270 nM	370 nM	380 nM	410 nM	410 nM	–
COc1ccc(C(=O)c2cc(OC)c(OC)c(OC)c2)c(NC(=O)CO)c1	70 nM	120 nM	100 nM	70 nM	230 nM	Activity (A549 [20]): Active; Activity (A549 [15]): Active; Activity (A549 [16]): Active; Activity (A549 [17]): Active; Activity (A549 [18]): Active; Activity (A549 [19]): Active
C=C(c1ccc(OC)cc1NC(=O)CN(C)C)c1ccc(OC)c2c1OC(C)(C)C=C2	270 nM	690 nM	420 nM	900 nM	500 nM	–
